Calls of active or inactive are those of the source. The rule behind the calls is not given here.
Tests used:
[1] = target: T1, Protein cereblon/Tyrosine-protein kinase ABL1/Breakpoint cluster region protein (Homo sapiens, UniProt P00519+P11274+Q96SW2); experiment: Protac activity at Cereblon/BCR/ABL in human K562 cells assessed as induction of BCR-ABL degradation incubated for 32 to 48 hrs by Western blot analysis; type: cell-based
K562 = experiment: Antiproliferative activity against human K562 cells incubated for 3 days by CCK8 assay; type: functional, cell-based; conditions: K562, 72 h
[2] = system: Protein cereblon/Tyrosine-protein kinase ABL1/Breakpoint cluster region protein (Homo sapiens), P00519+P11274+Q96SW2 [T315I]; experiment: Protac activity at Cereblon/BCR/ABL T315I mutant (unknown origin) expressed in mouse BaF3 cells assessed as reduction in BCR-ABL T315I mutant protein levels at 3 to 30000 nM incubated for 32 hrs by Western blot analysis; type: cell-based
BaF3 = experiment: Antiproliferative activity against wild type mouse BA/F3 cells incubated for 3 days by CCK8 assay; type: cell-based; conditions: BaF3, 72 h
[3] = target: Protein cereblon/Tyrosine-protein kinase ABL1/Breakpoint cluster region protein (Homo sapiens, UniProt P00519+P11274+Q96SW2, T315I); type: cell-based, BaF3
[4] = system: Protein cereblon/Tyrosine-protein kinase ABL1/Breakpoint cluster region protein (Homo sapiens), P00519+P11274+Q96SW2 [E255K]; experiment: Protac activity at Cereblon/BCR/ABL E255K mutant (unknown origin) expressed in human HeLa cells assessed as reduction in BCR-ABL E255K mutant protein levels at 10 to 10000 nM incubated for 32 hrs by Western blot analysis; type: cell-based
[5] = system: Protein cereblon/Tyrosine-protein kinase ABL1/Breakpoint cluster region protein (Homo sapiens), P00519+P11274+Q96SW2 [H396R]; experiment: Protac activity at Cereblon/BCR/ABL H396R mutant (unknown origin) expressed in human HeLa cells assessed as reduction in BCR-ABL H396R mutant protein levels at 10 to 10000 nM incubated for 32 hrs by Western blot analysis; type: cell-based
[6] = system: Protein cereblon/Tyrosine-protein kinase ABL1/Breakpoint cluster region protein (Homo sapiens), P00519+P11274+Q96SW2 [V468F]; experiment: Protac activity at Cereblon/BCR/ABL V468F mutant (unknown origin) expressed in human HeLa cells assessed as reduction in BCR-ABL V468F mutant protein levels at 10 to 10000 nM incubated for 32 hrs by Western blot analysis; type: cell-based
H9c2 = experiment: Antiproliferative activity against rat H9C2 cells incubated for 3 days by CCK8 assay; type: cell-based; conditions: H9c2, 72 h
HUVEC [7] = experiment: Antiproliferative activity against human HUVEC incubated for 3 days by CCK8 assay; type: cell-based; conditions: 72 h
[8] = target: T2, Tyrosine-protein kinase ABL1 (Homo sapiens, UniProt P00519, T315I); experiment: Inhibition of human ABL T315I mutant using EAIYAAPFAKKK substrate and [gamma-33P]-ATP incubated for 40 mins by scintillation counting method
[9] = target: Tyrosine-protein kinase Lyn (Homo sapiens, UniProt P07948); experiment: Inhibition of human LYN using poly(Glu,Tyr)4:1 substrate and [gamma-33P]-ATP incubated for 40 mins by scintillation counting method
[10] = target: T3, Proto-oncogene tyrosine-protein kinase Src (Homo sapiens, UniProt P12931); experiment: Inhibition of human c-SRC using poly(Glu,Tyr)4:1 substrate and [gamma-33P]-ATP incubated for 40 mins by scintillation counting method
[11] = target: Vascular endothelial growth factor receptor 2 (Homo sapiens, UniProt P35968); experiment: Inhibition of human VEGFR2 using MBP substrate and [gamma-33P]-ATP incubated for 40 mins by scintillation counting method
HUVEC [12] = experiment: Toxicity in HUVEC assessed as inhibition of tube formation at 1 uM incubated for 20 hrs by optical microscopy based matrigel-based assay; type: cell-based; conditions: human
[13] = target: T1, Protein cereblon/Tyrosine-protein kinase ABL1/Breakpoint cluster region protein; experiment: Protac activity at Cereblon/BCR/ABL in human K562 cells assessed as synergistic antiproliferation effect by measuring combination index at 0.25 to 4 times alone antiproliferative EC50 ibn presence of hedgehog pathway inhibitor […] by Chou-Talalay method; type: cell-based
[14] = target: Protein cereblon/Receptor-type tyrosine-protein kinase FLT3 (Homo sapiens, UniProt P36888+Q96SW2); experiment: Protac activity at Cereblon/Flt3 in human K562 cells assessed as reduction in Flt3 protein levels at 3 to 30000 nM incubated for 48 hrs by Western blot analysis; type: ADME, cell-based
[15] = target: Protein cereblon/Proto-oncogene tyrosine-protein kinase Src (Homo sapiens, UniProt P12931+Q96SW2); experiment: Protac activity at Cereblon/Src in human K562 cells assessed as reduction in Src protein levels at 3 to 30000 nM incubated for 48 hrs by Western blot analysis; type: ADME, cell-based; conditions: k562, 48 h, 30 µM
[16] = target: Protein cereblon/Mast/stem cell growth factor receptor Kit (Homo sapiens, UniProt P10721+Q96SW2); experiment: Protac activity at Cereblon/C-Kit in human K562 cells assessed as reduction in C-Kit protein levels at 3 to 30000 nM incubated for 48 hrs by Western blot analysis; type: ADME, cell-based; conditions: k562, 48 h, 30 µM
[17] = target: Protein cereblon/Platelet-derived growth factor receptor alpha (Homo sapiens, UniProt P16234+Q96SW2); experiment: Protac activity at Cereblon/PDGFRalpha in human K562 cells assessed as reduction in PDGFRalpha protein levels at 3 to 30000 nM incubated for 48 hrs by Western blot analysis; type: ADME, cell-based; conditions: k562, 48 h, 30 µM
[18] = target: T2, Tyrosine-protein kinase ABL1; experiment: Safety index, ratio of compound IC50 to ponatinib IC50 for inhibition of human ABL T315I mutant using EAIYAAPFAKKK substrate and [gamma-33P]-ATP incubated for 40 mins by scintillation counting method
[19] = target: T3, Proto-oncogene tyrosine-protein kinase Src; experiment: Safety index, ratio of compound IC50 to ponatinib IC50 for inhibition of human c-SRC using poly(Glu,Tyr)4:1 substrate and [gamma-33P]-ATP incubated for 40 mins by scintillation counting method

T3 sequence (P12931 2-536 limits assumed): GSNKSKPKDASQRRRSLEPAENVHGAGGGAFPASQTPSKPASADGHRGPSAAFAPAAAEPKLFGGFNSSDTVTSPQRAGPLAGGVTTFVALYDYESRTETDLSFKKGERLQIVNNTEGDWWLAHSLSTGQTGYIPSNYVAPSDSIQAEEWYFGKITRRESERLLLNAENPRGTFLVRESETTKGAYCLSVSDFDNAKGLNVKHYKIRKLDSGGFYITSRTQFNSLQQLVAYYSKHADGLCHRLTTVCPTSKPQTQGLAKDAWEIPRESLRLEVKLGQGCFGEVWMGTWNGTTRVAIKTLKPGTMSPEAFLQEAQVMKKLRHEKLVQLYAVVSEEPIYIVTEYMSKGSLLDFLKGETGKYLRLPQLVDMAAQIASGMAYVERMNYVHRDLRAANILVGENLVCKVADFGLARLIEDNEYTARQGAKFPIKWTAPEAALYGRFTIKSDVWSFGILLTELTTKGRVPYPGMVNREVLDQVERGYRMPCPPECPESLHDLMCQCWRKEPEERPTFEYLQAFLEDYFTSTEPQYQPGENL
Chain of Vascular endothelial growth factor receptor 2 (P35968 whole entry): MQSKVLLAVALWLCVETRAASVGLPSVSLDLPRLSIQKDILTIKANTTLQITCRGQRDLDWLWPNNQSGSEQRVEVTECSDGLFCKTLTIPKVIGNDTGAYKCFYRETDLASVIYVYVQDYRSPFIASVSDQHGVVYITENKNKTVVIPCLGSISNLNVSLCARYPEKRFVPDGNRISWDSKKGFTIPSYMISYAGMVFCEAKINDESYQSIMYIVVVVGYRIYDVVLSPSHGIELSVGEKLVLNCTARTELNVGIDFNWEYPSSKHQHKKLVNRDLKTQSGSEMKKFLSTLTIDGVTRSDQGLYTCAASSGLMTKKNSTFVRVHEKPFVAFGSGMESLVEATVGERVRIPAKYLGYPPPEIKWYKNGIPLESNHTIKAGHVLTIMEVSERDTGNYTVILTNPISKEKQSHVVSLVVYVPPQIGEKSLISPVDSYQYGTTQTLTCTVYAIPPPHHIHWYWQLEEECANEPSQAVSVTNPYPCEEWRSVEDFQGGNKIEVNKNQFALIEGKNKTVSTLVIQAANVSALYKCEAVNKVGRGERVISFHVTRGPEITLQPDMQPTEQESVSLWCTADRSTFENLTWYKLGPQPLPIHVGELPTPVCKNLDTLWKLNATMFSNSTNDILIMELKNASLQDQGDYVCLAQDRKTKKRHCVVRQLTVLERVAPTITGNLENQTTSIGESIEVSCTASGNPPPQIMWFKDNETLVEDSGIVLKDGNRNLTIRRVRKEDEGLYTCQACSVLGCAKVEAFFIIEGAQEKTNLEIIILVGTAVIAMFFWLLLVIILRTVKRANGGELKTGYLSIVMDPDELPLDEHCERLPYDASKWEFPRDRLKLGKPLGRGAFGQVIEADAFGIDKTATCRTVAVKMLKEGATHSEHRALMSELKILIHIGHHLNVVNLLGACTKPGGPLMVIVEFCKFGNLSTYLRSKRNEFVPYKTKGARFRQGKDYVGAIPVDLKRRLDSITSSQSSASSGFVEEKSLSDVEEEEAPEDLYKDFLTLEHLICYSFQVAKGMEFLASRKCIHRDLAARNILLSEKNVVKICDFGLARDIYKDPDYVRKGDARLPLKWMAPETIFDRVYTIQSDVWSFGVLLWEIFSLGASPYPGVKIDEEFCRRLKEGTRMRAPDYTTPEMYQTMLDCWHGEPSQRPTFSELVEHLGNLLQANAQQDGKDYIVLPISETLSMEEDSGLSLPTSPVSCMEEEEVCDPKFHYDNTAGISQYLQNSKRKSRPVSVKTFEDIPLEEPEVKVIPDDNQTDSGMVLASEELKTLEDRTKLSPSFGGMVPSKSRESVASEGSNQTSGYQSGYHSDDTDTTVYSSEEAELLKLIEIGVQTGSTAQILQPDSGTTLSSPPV
Chain of Protein cereblon/Proto-oncogene tyrosine-protein kinase Src (P12931 2-536 limits assumed): as the sequence (P12931 2-536 limits assumed) above
Chain of Protein cereblon/Proto-oncogene tyrosine-protein kinase Src (Q96SW2 whole entry): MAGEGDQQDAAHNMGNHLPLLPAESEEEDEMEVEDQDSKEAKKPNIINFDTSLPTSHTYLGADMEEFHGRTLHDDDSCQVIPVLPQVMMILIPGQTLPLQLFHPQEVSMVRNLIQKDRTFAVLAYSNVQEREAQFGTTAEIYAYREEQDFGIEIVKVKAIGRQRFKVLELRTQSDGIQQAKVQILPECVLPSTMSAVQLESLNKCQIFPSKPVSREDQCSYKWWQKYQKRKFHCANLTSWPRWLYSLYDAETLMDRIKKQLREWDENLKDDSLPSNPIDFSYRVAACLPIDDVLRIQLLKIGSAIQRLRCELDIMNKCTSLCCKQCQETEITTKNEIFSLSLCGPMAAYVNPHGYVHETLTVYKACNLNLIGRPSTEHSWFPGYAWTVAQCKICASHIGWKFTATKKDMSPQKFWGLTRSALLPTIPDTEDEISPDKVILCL
Chain of Protein cereblon/Platelet-derived growth factor receptor alpha (P16234 whole entry): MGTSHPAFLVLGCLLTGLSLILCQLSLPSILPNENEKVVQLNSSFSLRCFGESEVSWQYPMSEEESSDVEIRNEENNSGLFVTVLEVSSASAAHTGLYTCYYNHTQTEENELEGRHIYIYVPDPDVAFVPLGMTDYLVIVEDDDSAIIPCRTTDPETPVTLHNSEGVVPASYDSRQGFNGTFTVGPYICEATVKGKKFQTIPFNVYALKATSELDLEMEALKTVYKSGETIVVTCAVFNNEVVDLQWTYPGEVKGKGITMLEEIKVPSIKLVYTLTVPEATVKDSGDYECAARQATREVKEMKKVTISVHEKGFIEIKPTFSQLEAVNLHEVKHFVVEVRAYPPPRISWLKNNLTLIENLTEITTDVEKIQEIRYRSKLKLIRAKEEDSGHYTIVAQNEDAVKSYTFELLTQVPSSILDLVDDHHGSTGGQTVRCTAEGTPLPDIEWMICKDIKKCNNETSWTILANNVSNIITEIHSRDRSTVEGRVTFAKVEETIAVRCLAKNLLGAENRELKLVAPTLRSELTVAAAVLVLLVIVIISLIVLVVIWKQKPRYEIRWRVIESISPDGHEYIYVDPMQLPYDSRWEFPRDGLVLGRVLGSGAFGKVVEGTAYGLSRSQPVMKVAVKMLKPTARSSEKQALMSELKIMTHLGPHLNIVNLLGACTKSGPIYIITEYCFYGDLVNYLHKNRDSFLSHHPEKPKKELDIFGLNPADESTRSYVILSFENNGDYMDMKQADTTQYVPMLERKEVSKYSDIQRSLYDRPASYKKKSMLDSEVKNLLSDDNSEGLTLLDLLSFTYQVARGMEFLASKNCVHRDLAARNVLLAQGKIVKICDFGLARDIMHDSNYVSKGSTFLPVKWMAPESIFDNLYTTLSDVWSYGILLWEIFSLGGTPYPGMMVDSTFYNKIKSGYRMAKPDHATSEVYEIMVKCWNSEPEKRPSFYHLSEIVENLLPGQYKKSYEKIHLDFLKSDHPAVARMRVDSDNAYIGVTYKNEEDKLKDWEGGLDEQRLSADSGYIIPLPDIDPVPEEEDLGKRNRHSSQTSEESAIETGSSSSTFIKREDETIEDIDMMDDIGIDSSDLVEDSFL
Chain of Protein cereblon/Platelet-derived growth factor receptor alpha (Q96SW2 whole entry): as the sequence (Q96SW2 whole entry) above
Chain of Tyrosine-protein kinase Lyn (P07948 whole entry): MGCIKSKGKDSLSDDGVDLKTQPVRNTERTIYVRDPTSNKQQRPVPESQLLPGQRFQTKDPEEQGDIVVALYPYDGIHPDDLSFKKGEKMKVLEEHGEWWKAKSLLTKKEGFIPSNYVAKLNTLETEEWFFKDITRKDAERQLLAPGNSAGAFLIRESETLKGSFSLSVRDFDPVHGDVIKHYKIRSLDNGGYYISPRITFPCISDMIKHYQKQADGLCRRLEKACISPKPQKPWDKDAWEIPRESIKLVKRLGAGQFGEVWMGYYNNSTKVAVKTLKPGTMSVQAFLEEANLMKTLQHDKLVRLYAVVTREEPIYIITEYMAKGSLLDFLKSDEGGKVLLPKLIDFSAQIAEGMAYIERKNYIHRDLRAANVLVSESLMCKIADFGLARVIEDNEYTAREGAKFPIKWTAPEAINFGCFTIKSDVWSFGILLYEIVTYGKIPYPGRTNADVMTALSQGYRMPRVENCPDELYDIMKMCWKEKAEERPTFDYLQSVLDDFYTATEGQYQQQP

Compound: Cc1ccc(C(=O)Nc2ccc(CN3CCN(C(=O)CCCc4cn(CCOCCOCCOCCNc5cccc6c5C(=O)N(C5CCC(=O)NC5=O)C6=O)nn4)CC3)c(C(F)(F)F)c2)cc1C#Cc1cnc2cccnn12 (configuration not stated)
- DC50 [1]: 20 nM
- IC50 (K562): 7.5 nM
- Activity [2]: Active
- EC50 (BaF3): > 10000 nM
- EC50 [3]: 28.5 nM
- Activity [4]: Active
- Activity [5]: Active
- Activity [6]: Active
- EC50 (H9c2): > 10000 nM
- EC50 (HUVEC [7]): > 10000 nM
- IC50 [8]: 13.1 nM
- IC50 [9]: 44.2 nM
- IC50 [10]: 2580 nM
- IC50 [11]: 441 nM
- Activity (HUVEC [12]): Non-Toxic
- CI [13]: < 1
- IC50 [14]: > 300 nM
- Activity [15]: Not Active
- Activity [16]: Not Active
- Activity [17]: Not Active
- Ratio IC50 [18]: 13
- Ratio IC50 [19]: 257

Source: ChEMBL document CHEMBL4616725, “Global PROTAC Toolbox for Degrading BCR-ABL Overcomes Drug-Resistant Mutants and Adverse Effects” (J Med Chem, 2020)
